# Structures can show the parent of a compound that is named as a salt.
# Columns and labels:
# [1] = system: HT-29 cells; test: CellTiter-Glo luminescent cell viability assay (ATP content); format: cell-based; details: Homo sapiens; HT-29, 72 hours; concentration not stated in b112 (FIG. 2: most cytotoxic at 10 mM)
# Protocol: Cell viability was also assessed using the CellTiter-Glo R: Assay kit, which measures the amount of ATP to indicate cellular metabolic activity. HT-29 and HCT-116 cells were cultured in a 96-well plate at a density of 2500 cells per well. After 24 hours of seeding, the cells were exposed to various concentrations of IS, including 0.018 mM, 0.037 mM, 0.075 mM. 0.15 mM, 0.31 mM, 0.62 mM, 1.25 mM, 2.5 mM, 5 mM, and 10 mM. Triplicate wells were treated with IS for two different incubation periods: 48 hours and 72 hours. After the respective incubation periods. the assay was performed following the manufacturer's protocol. The details of the protocol can be found in the kit provided by the manufacturer. In summary, luminescence was measured using a Sirius Luminometer V3.2 (Berthold DETECTIONN SYSTEMS) with a measurement delay time of 2 seconds and a measurement time of 5 seconds. Non-treated cells were used as controls, representing 100% metabolically active cells in terms of ATP content.
# [2] = system: HT-29 cells; test: Cellular imaging (cell morphology); format: cell-based, human; details: HT-29, 1.25-10 mM, 24, 48, 72 hours
# Protocol: (§1) To assess the morphological changes of the cells following treatment, HT-29 and HCT-116 cells were cultured in 12-well plates at a concentration of […] cells per well. After 24 hours of seeding, the cells were treated with IS at concentrations of 1.25 mM, 5 mM, and 10 mM. The cells were exposed to IS in triplicate for three different incubation periods: 24 hours, 48 hours, and 72 hours. After the respective incubation periods, the cells were examined using a Nikon microscope equipped with a 20× objective. Images were captured using a digital camera and the NIS-Elements 3.0 software.
# [3] = system: HCT-116 cells; test: Cellular imaging (cell morphology); format: cell-based, human; details: HCT-116, 1.25-10 mM, 24, 48, 72 hours
# Protocol: as §1
# [4] = system: HT-29 cells; test: Cell cycle assay, PI flow cytometry; format: cell-based, human; details: HT-29, 48 hours, 5 mM and 10 mM (not resolved); increased from 14.2±0.5
# Protocol: (§2) The evaluation of the effect of IS on the progression of HCT-116 and HT-29 cell cycle assay involved analysing the G0/G1 phase, Synthesis(S) phase, and G2/M phase. Cells were initially cultured in a 6-well plate with a seeding density of (2×10^5) cells/well in duplicate. After 24 hours of seeding, the cells were treated with varying concentrations of IS (1.25 mM, 5 mM, and 10 mM). Following a 48-hour processing period, the cells were detached using trypsin and washed twice with refrigerated PBS. The resulting cell pellet was then dissolved in 200 ul of chilled PBS and fixed by adding 800 ul of 70% ethanol dropwise. The samples were stored at −20° C. overnight for later use. After the overnight incubation, the cells were centrifuged at 2000 rpm for 5 minutes at 4° C. The pellet was dissolved in 300 ul of PBS, 50 ul of RNase A (100 ug/ml), and 35 ul of Triton X-100 (0.1%), and incubated at 37° C. for 30 minutes. Subsequently, 20 ul of PI was added from a stock solution of 500 μg/ml, and the samples were incubated in the dark for an additional 30 minutes. Flow cytometry (BD Biosciences, FACS Verse, Germany) was employed to measure PI staining in 1×10^3 cells. The Flow Jo software was utilized for the analysis of cell distribution across the different phases of the cell cycle.
# [5] = system: HCT-116 cells; test: Cell cycle assay, PI flow cytometry; format: cell-based, human; details: HCT-116, 48 hours, 5 mM and 10 mM (not resolved); increased from 18.1±1.99
# Protocol: as §2
# [6] = system: HT-29 cells; test: Membrane integrity by LDH assay; format: cell-based, human; details: 48 hours, 0.1% Triton X-100 = 100%
# Protocol: (§3) Membrane integrity was assessed using the LDH based in vitro toxicology kit obtained from Sigma-Aldrich. The assay was conducted following the manufacturer's protocol. HCT-116 and HT-29 cells were cultured in a 96-well plate at a density of 10,000 cells per well. After 24 hours of seeding, the cells were treated with IS at concentrations of 1.25 mM, 5 mM, and 10 mM. Following a 48-hour treatment period, the cells were centrifuged, and 100 μl of supernatant was collected into a fresh 96-well plate to measure the amount of LDH released into the media by necrotic cells. Subsequently, 100 μl of the dosing reagent was added and incubated for 30 minutes at 37° C. After incubation, 20 μl of […] stop solution was added. Absorbance was measured at 690 nm and 490 nm using a ClarioStar plate reader (BMG Labtech, Ortenberg, Germany). The background absorbance at 690 nm was subtracted from the 490 nm absorbance. For the positive control, 0.1% Triton X-100 was used and considered as maximum LDH release. Untreated cells served as the negative control. The membrane integrity of IS-exposed cells was compared to that of untreated cells. The following formula was used to calculate the LDH release from the cells: Experimental LDH release (OD490)×100/maximum LDH release (OD490).
# [7] = system: HCT-116 cells; test: Membrane integrity by LDH assay; format: cell-based, human; details: 48 hours, 0.1% Triton X-100 = 100%
# Protocol: as §3
# [8] = system: inflammatory cytokines IL-17A, IL-1β and TNF-α; test: Cytokine study (ELISA of blood samples); format: in vivo, mice; details: IP and IR, zero, 1 month, 2 month
# Protocol: Each group consisted of six mice. […] For the cytokine study, blood samples were collected from the mice. The cytokines of interest, IL-1β, TNF-α, and IL-17A, were analyzed in all groups at three different time points: baseline (time point zero), one month, and two months. The analysis was performed using an ELISA kit from R&D Systems. The experimental procedure for cytokine study followed the instructions provided with the kit. In summary, each well of the ELISA plate was coated with a specific monoclonal antibody against the respective cytokines. Then, 50 ul of standard, control, and sample were added to the appropriate wells. The plate was incubated at room temperature (RT) for 2 hours. After incubation, each well was washed four times with 400 ul of buffer to remove any unbound substances. Subsequently, 100 ul of the secondary antibody conjugate was added to each well and incubated at RT for another 2 hours. Following the second incubation, the wells were washed four times, and 100 ul of substrate solution was added. The plate was then incubated for 30 minutes at RT in the dark. After incubation, 100 ul of stop solution was added to each well to halt the enzymatic reaction. The optical density (OD) of the samples was measured at wavelengths of 450 nm and 570 nm within 30 minutes of adding the stop solution. To obtain the final readings, the absorbance at 570 nm was subtracted from the absorbance at 450 nm.
smiles,measurement,setting,value
"O=S(=O)(O)Oc1c[nH]c2ccccc12 [IS, Indoxyl Sulfate]",viability at 10000 µM,[1],19%
same,cell morphology,[2],"rounded morphology, reduced cell numbers, and detachment from the culture substrate"
same,cell morphology,[3],"rounded morphology, reduced cell numbers, and detachment from the culture substrate"
same,number of cells in the G2/M phase,[4],17.3±0.7
same,number of cells in the G2/M phase,[5],22.7±3.2
same,LDH release in the supernatant,"[6]; HT-29, 5 mM",82%
same,LDH release in the supernatant,"[6]; HT-29, 10 mM",85%
same,LDH release in the supernatant,"[7]; HCT-116, 5 mM",80%
same,LDH release in the supernatant,"[7]; HCT-116, 10 mM",86%
same,level of IL-1β vs control groups,[8],no significant differences
same,level of IL-17A vs control groups,[8],no significant differences
same,level of TNF-α vs control groups,[8],no significant differences

# Source: patent US20250195468A1, “METHODS AND COMPOSITIONS FOR TREATING COLORECTAL CANCER WITH INDOXYL SULFATE” (National Institute of Immunology, priority 2023, published 2025)
